Patent US20220235421A1, “DETECTING AND TREATING CISPLATIN SENSITIVE CANCER” (The Cleveland Clinic Foundation, priority 2021, published 2022)

Tested on: epithelial-based cancer cell lines (GDSC)
Test: Cell Line Persistence Curve of cisplatin IC50 in the GDSC dataset, by CisSig score cohort
Settings: cisplatin concentration approximately 5
Source text: FIG. 11C compares the distribution of IC50 between cohorts of GDSC cell lines in this top and bottom quintile of CisSig score. We are terming this plot a “Cell Line Persistence Curve”, which resembles a Kaplan-Meier survival curve, but uses IC50 in place of survival time for cell lines. […] For example, when cisplatin concentration reaches approximately 5 approximately 50% of the resistant cohort remains with a greater IC50, while only 20% of the sensitive cohort remains with a greater IC50. In other words, cell lines predicted to be resistant tend to have greater IC50 values and cell lines predicted to be sensitive tend to have lower IC50 values.
The drug response data in the GDSC database was last updated 27 Mar. 2018; this version is referred to as “GDSC2.” Cisplatin drug concentration is reported in μM. Raw viability data were processed using the R package, gdscIC50, where they were normalized with negative controls (media alone) and positive controls (media only wells with no cells). Dose-response curves were fit using a multi-level fixed effect model with a classic sigmoidal curve shape assumed. This model was fitted using all cell line/drug combinations that were screened instead of fitting separate models to individual drug-response series. […]

In the case of `N.N.[Cl][Pt][Cl]` [cisplatin], the “proportion of the cohort remaining with a cisplatin IC50 greater than the cisplatin concentration” value (resistant cohort (bottom quintile of CisSig score)) is reported as “approximately 50%” and the “proportion of the cohort remaining with a cisplatin IC50 greater than the cisplatin concentration” value (sensitive cohort (top quintile of CisSig score)) is reported as 20%.
